As a reminder, the IC50 is the concentration that inhibits the measured activity by half.

The source of these data is article PMC9321043, “Synthesis, Structure–Activity Relationships, and Parasitological Profiling of Brussonol Derivatives as New Plasmodium falciparum Inhibitors” (Pharmaceuticals, 2022).

The subject of assay [1] is P. falciparum (3D7 strain). The experiment in a line: In vitro antiplasmodial activity, P. falciparum blood-stage parasites, SYBR Green I. It is filed as cell-based, Plasmodium falciparum. The settings on record: Plasmodium falciparum, 3D7, 3D7 strain, Table 2 strain panel; read-out: IC50. How it is done: The P. falciparum strains were cultivated in human blood cells (hRBC) O^+, while P. knowlesi was cultivated in rhesus red blood cells (rRBC) as described. P. falciparum complete RPMI (consisting of RPMI-1640, supplemented with 0.2% NaHCO3, 25 mM HEPES (pH 7.4), 11 mM D-glucose, 10 mg/L hypoxanthine, 25 mg/L gentamicin, and 0.5% (m/v) AlbuMAX II). The parasitemias of these cultures were maintained below 10% with 2.5% hematocrit. P. knowlesi complete RPMI (consisting of RPMI-1640 supplemented with 25 mM HEPES, […] hypoxanthine, 0.26% NaHCO3, 10 mg/L gentamicin, and 1% Albumax II). This culture was maintained with RBCs up to 5% hematocrit. The culture medium was changed daily, and all cultures were maintained under a 90% N2/5% CO2/5% O2 gas mixture at 37 °C. All compounds were purchased from Sigma-Aldrich (Cotia, Brazil).
The antiplasmodial activity of brussonol and derivatives was evaluated against P. falciparum blood parasites 3D7(chloroquine-sensitive). The parasites were synchronized through sterile 5% (m/v) D-sorbitol treatment over 10 min at 37 °C for the enrichment of ring stages. Centrifugation 600× g over 5 min was used to pellet the cultures. The parasitemia was determined by microscope analysis of thin blood smears stained with Giemsa 10% (v/v) after fixation with methanol. The initial parasitemia was calculated for 1000 red blood cells (RBCs), and cultures were diluted to 0.5% parasitemia and 2% hematocrit by the addition of the appropriate volumes of blood and medium. A total of 180 µL aliquots of parasites were distributed into 96-well plates followed by the addition of 20 µL of previously prepared aliquots of ten-fold concentrated compounds, the range of concentrations tested was 10–1.53 µM. Negative and positive control wells, which correspond to non-parasitized erythrocytes and parasite cultures in the absence of compounds, were set in parallel. The DMSO concentration was maintained below 0.05% (v/v) for all compounds except for brussonol, which was 0.5%. The plates were incubated for 72 h at 37 °C in a humidified incubator with a gas mixture of 90% N2, 5% O2, and 5% CO2. Each test was performed in duplicates, and the results were compared with the control cultures. Once completed incubation, the culture medium was removed, and the cells were resuspended in 100 µL PBS (116 mM NaCl, 10 mM NaH2PO4, 3 mM KH2PO4) and lysed with 100 µL lysis buffer (20 mM Tris base, 5 mM EDTA, 0.0008% (v/v) Triton X-100, 0.008% (m/v) saponin, pH 8.0) containing 0.002% (v/v) SYBR Green I. Plates were incubated for 30 min at room temperature, and a SpectraMAX Gemini EM plate reader (Molecular Devices Corp., Sunnyvale, CA) was used to determine the fluorescence corresponding to parasitic density (excitation at 485 nm, emission at 535 nm). The half-maximal inhibitory concentration (IC50^Pf) was determined by non-linear regression analysis of the resulting concentration–response curve using the software GraphPad Prism version 8.0.1 for Windows, GraphPad Software, San Diego, California USA, www.graphpad.com, accessed on 3 March 2022”.

Another assay concerns P. falciparum K1 strain. The experiment in a line: Resistance assessment, K1 strain. The assay is classed as cell-based. The conditions noted are these: Plasmodium falciparum.
For a further assay, the system named is P. falciparum Dd2 strain. The experiment in a line: Resistance assessment, Dd2 strain. It is filed as cell-based. The conditions noted are these: Plasmodium falciparum.
The next assay has as its system P. falciparum. The experiment in a line: Speed-of-action assay. It is filed as cell-based, Plasmodium falciparum. The settings on record: for speed of action: IC50 compared after 24, 48 and 72 h of drug exposure; for time of parasite death (morphological development, pyknotic nuclei): highest concentration evaluated, Giemsa smears at 0, 24, 48, 72 h. How it is done:
The speed-of-action assay assesses the inhibitory activity of the tested compounds after 24, 48, and 72 h of drug exposure. […] Moreover, to confirm the speed-of-action, the morphological development of the parasite in parallel with the IC50 assessment was verified. The parasites in the negative control wells developed according to the expected timeline (Figure 5a). […] Brussonol caused parasite death within the first 24 h of incubation as observed for artesunate (Figure 5a).
In this method, three 96-well plates were prepared by adding 180 µL of the parasite’s inoculum with 0.5% parasitemia and 2% hematocrit. A serial dilution of the compounds was added to each plate; the starting concentration for brussonol was 6× IC50, while for artesunate and pyrimethamine (fast- and slow-acting controls, respectively) were 10× IC50. In addition, a positive and negative control, which corresponded to parasite cultures with no addition of inhibitor and non-parasitized erythrocytes, respectively, were used for the parasite’s control growth. Each plate was treated for a different period (24, 48, or 72 h), and the first two plates were washed twice with fresh medium to remove the inhibitor, followed by incubation of 48 and 24 h, respectively. […] A statistical analysis using a one-way ANOVA test was done to compare each time point using GraphPad Prism version 8.0.1 for Windows, GraphPad Software, San Diego, California USA, www.graphpad.com, accessed on 1 February 2022. In parallel, the morphological development of the parasite under the compounds’ pressure was assessed by adding the compounds tested at the highest concentration evaluated. Blood smears of each well were made and stained at time points 0, 24, 48, and 72 h.

Another assay has as its system hemozoin formation. The experiment in a line: Hemozoin formation inhibition assay. The assay is classed as biochemical. The conditions noted are these: hemin 25 µM, pH 4.8, 4 h, one experiment in triplicate. How it is done: 2. Hemozoin Formation Inhibition Assay
The hemozoin formation inhibition assay was performed as described previously.12 Briefly, serial 1:3 dilutions, in a 96‐well plate, wit h brussonol were made in a final volume of 20 μL in a concentration 10 times higher than the final concentration of the assay. Secondly, 90 μ L of freshly prepared hemin (at a final concentration of 25 μM) solution in 1M NaOAc/HOAc buffer pH 4.8 were added followed by addition of 90 μ L of 5.4 mg/L Tween 20 solution freshly prepared. The plates were let to stand for 4 hours at 37 °C followed by resuspension with multichannel pippete and read at 415 and 630 nm using a SpectraMAX Plus 384 plate reader (Molecular Devices Corp., Sunnyvale, CA).
Due to the absence of enough compound, this experiment wa s performed only once, but with internal triplicate. Chloroquine (CQ) and pyrimethamine (PYR) were used as positive and negative control of inhibition, respectively.
Inhibition (%) = 100 – 100 x [(Aco ntro l – Asample) / (Acontrol - Amin)] Acontrol is the difference of the absorbance at 415 and 630 nm of the negative control (Hemin +, Tween 20 ‐, Compound ‐); Amin is the difference of the absorbance at 415 and 630 nm of the positive control (Hemin +, Tween 20 +, Compound ‐ ); Asample is the difference of the absorbance at 415 and 630 nm of the sample. The hemozoin formation inhibition assay was performed to evaluate if brussonol act inhibiting hemozoin formation in P. falciparum. CQ, which is a well‐known inhibitor of hemozoin […]
Figure S1. Hemozoin formation inhibition assay. Different concentrations of CQ (black triangles), PYR (red squares) and brussonol (blue circles) were incubated with heme in triplicates. Th e absorbance was recorded at 415/630 nm to determine the hemozoin formation inhibition. […]

For assay [2], the system named is cytosolic Ca^2+ in P. falciparum. The experiment in a line: [Ca2+]cyt measurements in isolated parasites loaded with Fluo-4AM. It is filed as cell-based, Plasmodium falciparum. The protocol: One of the compounds identified in the structural similarity search was the cyclopiazonic acid (CPA) (Figure 8a). […] Because of that, brussonol activity on the modulation of the SERCA pump was investigated. To assess the effect of brussonol on calcium mobilization in P. falciparum intraerythrocytic stages, isolated parasites loaded with Fluo-4-AM were exposed to 10 μM brussonol in MOPS Ca^2+ buffer. […] To verify if the brussonol-elicited [Ca^2+]cyt increment originated from the endoplasmic reticulum (ER), targeting the PfSERCA pump, CPA was added before the addition of brussonol. […] In the brussonol-pretreated parasites, the addition of CPA still increased the cytosolic Ca^2 + level (30 ± 5 nM) (Figure 8d).
Isolated parasites were incubated for 1 h at 37 °C with 5 μM of Fluo-4AM in 1 mL MOPS buffer (116 mM NaCl, 5.4 mM KCl, 0.8 mM MgSO4, 5.5 mM D-glucose, 50 mM MOPS, and 2 mM CaCl2, pH 7.2), with 1 mM probenecid to minimize compartmentalization and extrusion of probe. The parasites were washed three times with the same buffer and transferred to a quartz cuvette. Intracellular calcium was measured continuously using a Hitachi F-7000 spectrofluorimeter (Tokyo, Japan) by measurement of the fluorescence (λex = 488 nm and λem = 530 nm) at 37 °C, under agitation. When indicated, 10 µM of cyclopiazonic acid (CPA) or 10 µM of brussonol were added to the cuvette. Maximal fluorescence (Fmax) was determined after the lysis of with digitonin 0.15% (m/v), and minimal fluorescence (Fmin) was determined by adding 25 mM EGTA in 3 M Tris, pH 8.8, until no further decrease in fluorescence was observed. The cytosolic calcium concentration ([Ca^2+]cyt) was calculated from the fluorescence data (F) using a Kd value of 345 nM using the formula:Ca^2 +cyt = 345 × [(F − Fmin)/(Fmax − F)]
The results (n = 2) were analyzed through One-Way ANOVA with Tukey post-test. All compounds described here were purchased from Sigma-Aldrich (verificar local).

The test system of assay [3] is P. falciparum TM90C6B strain. The experiment in a line: Resistance assessment, TM90C6B strain. The conditions noted are these: Plasmodium falciparum. The assay is classed as cell-based.
Assay [4] concerns P. falciparum 3D7^r_MMV848 strain. The experiment in a line: Resistance assessment, 3D7r-MMV848 strain. The assay is classed as cell-based. The conditions noted are these: Plasmodium falciparum.

Take `CCc1nc(N)nc(N)c1-c1ccc(Cl)cc1` [pyrimethamine]: the IC50 is 60 ± 10 nM in assay [1], > 10000 nM with P. falciparum K1 strain and > 10000 nM with P. falciparum Dd2 strain. Moreover, the speed of action result in the assay with P. falciparum is “slow-acting inhibitor”. For the same molecule, the “time of parasite death (morphological development, pyknotic nuclei)” value with P. falciparum was “at the 48 and 72 h time points”. In addition, the “hemozoin formation inhibition (in words)” value in the assay on hemozoin formation is reported as “no inhibition profile up to 1.4 mM”.
Turning to cyclopiazonic acid [reference compound], the “[Ca^2+]cyt rise in brussonol-pretreated parasites” value in assay [2] (10 µM CPA added after 10 µM brussonol) was 30 ± 5 nM. Also, the “[Ca^2+]cyt rise” value in assay [2] (10 µM compound alone, MOPS Ca^2+ buffer, relative to basal level) was 23 ± 2 nM.
For the molecule `O=C1C(O)=C([C@H]2CC[C@H](c3ccc(Cl)cc3)CC2)C(=O)c2ccccc21` [atovaquone, reference compound], the figures for the IC50 in assay [1] and in assay [3] were 0.7 ± 0.3 nM and 3000 ± 1000 nM, respectively.
Regarding `C[C@H]1[C@H](OC(=O)CCC(=O)O)O[C@@H]2O[C@@]3(C)CC[C@H]4[C@H](C)CC[C@@H]1[C@@]24OO3` [artesunate], the IC50 in assay [1] is 8 ± 4 nM; with P. falciparum K1 strain it was 7 ± 3 nM; in the assay with P. falciparum Dd2 strain, 11 ± 8 nM; in assay [3], 6 ± 2 nM; in assay [4] it was 13 ± 8 nM. Further, in the assay on P. falciparum, the speed of action entry is listed as “fast-acting inhibitor”. Also, in the assay on P. falciparum, the “time of parasite death (morphological development, pyknotic nuclei)” value was ≤ 24 h.
